Assays:
STK33 = biological target: T1, STK33 (Homo sapiens, UniProt Q9BYT3); test: immunofluorescence staining of SW480 xenograft tissue, STK33; assay type: in vivo; details: nude mice, oral daily, 14 doses, Compound A 100 mg/kg, Compound B 50 mg/kg, FIG. 6B
T1 construct: from tissue; host or cells: human SW480 colon cancer xenograft tumours grown in female nude mice
Description: (§1) The effect of a treatment combination of Compound A and Compound B on the levels of various pharmacodynamic (PD) markers for the agents in vivo was studied. A mouse xenograft model of human colon cancer (SW480) was used.
(§2) Levels of STK33 and Nanog were examined using immunofluorescence staining of the xenograft tissue. Female nude mice were inoculated subcutaneously with 8×10^6 human SW480 colon cancer cells. Animals were treated orally daily with vehicle, Compound A (100 mg/kg), Compound B (50 mg/kg), or Compound A and Compound B (100 mg/kg and 50 mg/kg, respectively) for a total of 14 doses. At the end of treatment, the tumors were harvested from euthanized mice. Part of the dissected tumors were fixed overnight in 3.7% neutral buffered formaldehyde at 4° C., and then paraffin embedded, cut to four micron sections, and affixed onto positively charged slides. After being baked and deparaffinized, the slides with tumor or control tissues were incubated in 10mM pH6.0 sodium citrate solution for antigen retrieval at 98° C. […] After being mounted with ProLong mounting medium containing DAPI (Invitrogen), the slides were examined on a Zeiss Axis Imager M2 upright fluorescence microscope with a 20× objective and analyzed with Zen software.

Nanog = test: immunofluorescence staining of SW480 xenograft tissue, Nanog; assay type: in vivo, human; details: nude mice, oral daily, 14 doses, Compound A 100 mg/kg, Compound B 50 mg/kg, FIG. 6B
Description: as §1, §2

STAT3 pathway = details: according to U.S. Pat. No. 8,877,803; read-out: STAT3 pathway activity, cellular IC50; cited from earlier work
p-STAT3 = biological target: T2, p-STAT3 (Homo sapiens, UniProt P40763); test: immunofluorescence staining of SW480 xenograft tissue, p-STAT3; assay type: in vivo; details: nude mice, oral daily, 14 doses, Compound A 100 mg/kg, Compound B 50 mg/kg, FIG. 6A
T2 construct: from tissue; host or cells: human SW480 colon cancer xenograft tumours grown in female nude mice
T2 sequence (P40763 whole entry): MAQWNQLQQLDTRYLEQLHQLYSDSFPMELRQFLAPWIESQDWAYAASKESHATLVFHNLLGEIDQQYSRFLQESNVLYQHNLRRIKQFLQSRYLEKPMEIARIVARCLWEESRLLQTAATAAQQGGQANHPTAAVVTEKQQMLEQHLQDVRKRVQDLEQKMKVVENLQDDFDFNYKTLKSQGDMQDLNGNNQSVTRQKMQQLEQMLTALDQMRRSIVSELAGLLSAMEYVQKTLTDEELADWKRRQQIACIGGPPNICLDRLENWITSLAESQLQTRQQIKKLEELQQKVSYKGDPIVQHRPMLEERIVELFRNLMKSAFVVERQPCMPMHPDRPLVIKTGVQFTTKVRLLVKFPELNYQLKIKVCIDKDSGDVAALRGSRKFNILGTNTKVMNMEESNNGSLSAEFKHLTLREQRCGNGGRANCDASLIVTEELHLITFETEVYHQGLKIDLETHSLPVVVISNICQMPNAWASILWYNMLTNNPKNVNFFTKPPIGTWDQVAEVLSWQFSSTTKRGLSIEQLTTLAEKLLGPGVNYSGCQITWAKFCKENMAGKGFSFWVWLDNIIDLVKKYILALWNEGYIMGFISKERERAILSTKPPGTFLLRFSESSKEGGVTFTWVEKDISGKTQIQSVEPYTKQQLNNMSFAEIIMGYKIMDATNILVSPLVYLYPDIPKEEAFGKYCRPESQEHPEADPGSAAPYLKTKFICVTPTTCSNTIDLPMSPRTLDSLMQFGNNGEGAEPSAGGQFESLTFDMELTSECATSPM

T1 sequence (Q9BYT3 whole entry): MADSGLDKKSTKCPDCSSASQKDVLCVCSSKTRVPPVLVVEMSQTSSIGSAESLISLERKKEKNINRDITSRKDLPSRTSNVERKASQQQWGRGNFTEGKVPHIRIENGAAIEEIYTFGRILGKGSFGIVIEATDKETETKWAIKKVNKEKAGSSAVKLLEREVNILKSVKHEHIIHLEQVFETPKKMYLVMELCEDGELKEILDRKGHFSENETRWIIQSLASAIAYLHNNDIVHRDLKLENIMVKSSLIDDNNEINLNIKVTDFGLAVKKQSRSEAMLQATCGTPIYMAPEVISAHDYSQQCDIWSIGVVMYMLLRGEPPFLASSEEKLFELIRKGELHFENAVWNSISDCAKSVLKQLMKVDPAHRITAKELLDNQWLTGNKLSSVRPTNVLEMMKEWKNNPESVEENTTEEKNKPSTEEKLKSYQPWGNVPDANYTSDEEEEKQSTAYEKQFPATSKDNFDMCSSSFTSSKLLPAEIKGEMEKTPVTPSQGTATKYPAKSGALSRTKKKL

In the case of `CC(=O)c1cc2c(o1)C(=O)c1ccccc1C2=O` [Compound A, 2-acetylnaphtho[2,3-b]furan-4,9-dione], the “cytoplasmic levels of STK33 in xenograft tissue” value (STK33) is given as “reduced”, the “cytoplasmic levels of Nanog in xenograft tissue” value (Nanog) is given as “reduced” and the IC50 (STAT3 pathway) is given as about 250 nM. The “cellular levels of p-STAT3 in xenograft tissue” value (p-STAT3) was “significantly reduced”.

For `CCN(CC)CCNC(=O)c1c(C)[nH]c(/C=C2\C(=O)Nc3ccc(-c4csc(-c5ccccc5)n4)cc32)c1C` [Compound B], the “nuclear levels of STK33 in xenograft tissue” value (STK33) was “reduced” and the “nuclear levels of Nanog in xenograft tissue” value (Nanog) was “reduced”.
